Converted amounts (≈) assume the structure as drawn.
How the values were obtained:
[1] = tested on: binding of HL60 cells to COS/PADGEM cells; assay: COS cell-PADGEM adhesion assay with labelled HL60 cells; type: cell-based, human
Experimental: COS cells (1×10^5) were transfected with 40 μg of the resulting PADGEM expression vector by calcium phosphate precipitation. Coverslips (12×12 mm) were added to each culture. After 48 hours of growth in DMEM--10% fetal calf serum, the COS cells were confluent.
HL60 cells (1×10^7), maintained in culture, were washed and resuspended in 0.5 ml of serum-free RPMI 1640. The cells were labeled with 270 μCi of ^111 In oxine (Callow et al., Arch. Surg., 117: 1447-1455 (1982)) and 10 μg of bis-carboxyethyl-carboxyfluorescein (Kolber et al., J. Immunol. Meth., 108: 255-264 (1988)) by incubation at 37° C. for 30 minutes. After washing with RPMI 1640--1% bovine serum albumin, the cells (1×10^6) were incubated with the coverslips containing confluent COS cell transfectants, in the presence or absence of LNF isomers, for 20 minutes at 37° C. The coverslips were washed with RPMI 1640, and duplicate coverslips were assayed for ^111 In activity. Alternatively, samples were evaluated for HL60 cell adherence by fluorescence and phase-contrast microscopy using a Zeiss Axioscope microscope in a blind assay. Inhibition of the binding of COS/PADGEM cells to U937 cells by the antibody 80H5 was performed in experiments identical to the procedure described above.
The results of a COS cell-PADGEM adhesion assay, in which the binding of ^111 In and bis-carboxyethyl-carboxyfluorescein-lableled HL60 cells to COS/PADGEM cells was monitored by assaying ^111 In activity (Example 2), are shown in FIG. 7. […] The inhibitory effect of LNF II was more apparent when the LNF to PADGEM ratio was high. […] It is possible that minor contamination of the LNF II preparation with LNF III can account for the inhibitory activity observed.
The inhibitory effects of LNF I, II, and III on the interaction of HL60 cells and COS/PADGEM was also studied morphologically in a blind assay. In these experiments, the binding of fluorescently labeled HL60 cells to COS/PADGEM cells was scored (Example 2).

cell viability = assay: Cell viability by trypan blue exclusion; type: cell-based; conditions: trypan blue exclusion method
[2] = tested on: glycoprotein IIb-IIIa dependent platelet aggregation; assay: ADP-induced platelet aggregation; type: cell-based, human; conditions: specificity control
Excerpt: To address the possibility of a nonspecific effect of LNF III on cell-cell interaction involving platelets, the effect of LNF III on ADP-induced platelet aggregation was examined.

[3] = tested on: adherence of activated platelets to neutrophils (PADGEM-mediated); assay: Phase-contrast cell adhesion assay: thrombin-activated platelets with neutrophils; type: cell-based, human; conditions: LNF isomers, FIG. 6
Experimental: Platelets were isolated by gel filtration from fresh anticoagulated blood obtained from normal human donors (Hsu-Lin et al., J. Biol. Chem., 259: 9121-9126 (1984)). Activated platelets were prepared by incubating cells without stirring for 20 minutes at 22° C. with thrombin at a final concentration of 0.25 U/ml. Fresh platelets were used in cell adhesion assays within 30 minutes of preparation.
Neutrophils were prepared by the method of English and Anderson (J. Immunol. Method, 5: 249-252 (1974)). The neutrophil preparations were greater than 95% pure by light microscopy. Monocytes were prepared by washing the mono-nuclear leukocyte fraction twice with human serum-5 mM EDTA and incubating the cells in RPMI 1640--10% fetal calf serum in sterile […] dishes for 2 hours at 37° C. The dishes were washed three times with PBS at 37° C. to remove nonadherent cells. PBS at 0° C. was added, and the cells were incubated at 4° C. for 1 hour. Adherent cells were gently detached with a rubber policeman, washed in PBS, and resuspended in RPMI 1640--1% fetal calf serum. Lymphocytes were obtained by washing the nonadherent cells with PBS and resuspending these cells in RPMI 1640--1% fetal calf serum. The purity of these preparations was established to be greater than 90% by light microscopy using Wright esterase and nonspecific esterase stains.
Twenty microliters of platelet suspension (2×10^8 /ml) was mixed with 20 μl of cell suspension (2×10^6 /ml) and incubated for 20 minutes at 22° C. in a microfuge tube. An aliquot of the cell suspension was then in a Neubauer chamber and evaluated by light microscropy using an Olympus model BH-2 microscope. Three samples from each assay were evaluated by counting 200 cells and scoring the percentage of cells with two or more adherent platelets (Jungi et al., Blood 67: 629-636 (1986)). Antibody inhibition studies were performed by preincubating cells (20 μl; 3×10^6 /ml) with 20 μl of antibody solution for 20 minutes at 22° C. Subsequently, 20 μl of platelet suspension was added, and the mixture was incubated for 20 minutes at 22° C. Samples were analyzed as above.
To identify the PADGEM recognition site on leukocytes that mediates the binding of activated platelets, monoclonal antibodies directed at various antigens on the surface of monocytes and neutrophils were tested for their ability to inhibit the interaction of these cells with activated platelets, using the phase-contrast cell adhesion assay described in Example 2 (FIG. 1 and FIG. 2). The antibodies were raised against various leukocytes and myeloid cell lines and are directed at leukocyte antigens. […] The percentage of cells displaying two or more adherent platelets was determined as described in Example 2.

Mel-14 = conditions: literature report; cited from earlier work

| IC50 ([3]; Homo sapiens, read-out: half-maximal inhibition of the adherence of activated platelets to neutrophils) [µg/mL] | SMILES | inhibition of binding of radiolabeled HL60 cells to COS/PADGEM cells ([1]; 111In activity, FIG. 7) | inhibition of binding of fluorescently labeled HL60 cells to COS/PADGEM cells ([1]; scored morphologically in a blind assay) | cell viability (cell viability) | effect on ADP-induced platelet aggregation [2] | inhibitory activity on adherence of activated platelets to neutrophils ([3]; direct cell adhesion assay) | inhibition of Mel-14-mediated lymphocyte-endothelial cell interaction (Mel-14) |
| --- | --- | --- | --- | --- | --- | --- | --- |
| ~50 (≈ 58.6 µM) | CC(=O)N[C@H]1[C@H](O[C@H]2[C@@H](O)[C@@H](CO)O[C@@H](O[C@H]3[C@H](O)[C@@H](O)C(O)O[C@@H]3CO)[C@@H]2O)O[C@H](CO)[C@@H](O[C@@H]2O[C@H](CO)[C@H](O)[C@H](O)[C@H]2O)[C@@H]1O[C@@H]1O[C@@H](C)[C@@H](O)[C@@H](O)[C@@H]1O (stereo partly shown) [LNF III, Galβ1-4(Fucα1-3)GlcNAcβ1-3Galβ1-4Glc] | significantly inhibited | significant inhibitory activity | did not alter cell viability | equivalent in the presence or absence of LNF III | effective inhibitor |  |
|  | O=P(O)(O)OC[C@H]1OC(O)[C@@H](O)[C@@H](O)[C@@H]1O (stereo partly shown) [mannose 6-phosphate] |  |  |  |  |  | inhibit |
